Laboratory results reported in patent EP0139358B1, “N6-substituted diarylalkyl adenosines, processes for their production and pharmaceutical compositions comprising the same” (priority 1983, dated 1985).
Where two headings read alike, the source gives them in different places.

Columns and labels:
[1] = tested on: Long-Evans rats or squirrel-monkeys; test: Antipsychotic lever-push shock avoidance protocol (SIDR); type: in vivo; conditions: Rattus norvegicus, read-out: SIDR ED50
Method: Representative compounds of the invention (identified in the Examples) were also tested for antipsychotic activity according to the following protocol (SIDR). […] Mature male Long-Evans rats or squirrel-monkeys are conditioned to push a lever in order to avoid a painful electric footshock. If the animal fails to push the lever, he receives a shock every ten seconds until the lever is pushed. Shocks can be terminated by pushing the lever. Thereafter, as long as the lever is pushed at least once every 20 seconds, there will be no shock. Each animal acts as its own control; one weekly session is used to establish baseline behavior and another session later in the week is used as a drug session. Once patterns of avoidance are established, the effects of standard and unknown compounds are studied. All events are electronically programmed and the response to these events counted or used as feedback to the program.

[2] = tested on: Swiss-Webster male mice; test: Mouse Activity and Screen Test (MAST): screen test (ST); type: in vivo; conditions: lowest dose at which an A rating (60-100%) is achieved, screen test; intraperitoneally
Method: Treatments are administered intraperitoneally one hour prior to testing. […] Compounds are dissolved or suspended in 0.2% Methocel. Control animals are injected with Methocel.
The compounds are identified in the Examples.

[3] = tested on: male Swiss-Webster mice; test: Analgesic evaluation: antiwrithing (AW) test, acetic acid; type: in vivo; conditions: Mus musculus, sc, read-out: AW ED50
Method: The antiwrithing (AW) test provides preliminary assessment of compounds with potential analgesic activity. The test is performed in male Swiss-Webster mice. Compounds are administered subcutaneously in aqueous 0.2% methylcellulose or other appropriate vehicles in volumes of 10 ml/kg. Dosages represent activity moiety.
Acetic acid (0.6%, 10 ml/kg) is injected intraperitroneally 20 minutes after administration of the adenosine agonist. Writhing movements are counted for five minutes starting seven minutes after the acetic acid injection. Writhing is defined as abdominal constriction and stretching of the body and hind legs with concave arching of the back. […] EDso values are calculated by nonlinear regression analysis.

[4] = tested on: Swiss-Webster male mice; test: Mouse Activity and Screen Test (MAST): inhibition of spontaneous locomotion (LI); type: in vivo; conditions: for Inhibition of mouse locomotor activity: one hour prior to testing, vs vehicle
[5] = tested on: rat heart; test: Coronary blood flow (PCS2A): isolated perfused heart; conditions: Rattus norvegicus

SMILES: OC[C@H]1O[C@@H](n2cnc3c(NCC(c4ccccc4)c4ccccc4)ncnc32)[C@H](O)[C@@H]1O [Example 1, N^6-(2,2-Diphenylethyl)adenosine]
- ED50 [1]: 2.5 mg/kg
- MAST ST LAD [2]: >100 mg/kg
- ED50 [3]: 6.9 mg/kg
- Inhibition of mouse locomotor activity ([4]; 10 mg/kg intraperitoneally): 92%
- Inhibition of mouse locomotor activity ([4]; 30 mg/kg intraperitoneally): 93%
- Inhibition of mouse locomotor activity ([4]; 100 mg/kg intraperitoneally): 94%
- minimal effective dose ([4]; Mus musculus, ip, read-out: MAST LI LAD): 3 mg/kg
- activation at 0.001 µM ([5]; read-out: CF): 7%
- activation at 0.003 µM ([5]; read-out: CF): 15%
- activation at 0.01 µM ([5]; read-out: CF): 32%
- activation at 0.1 µM ([5]; read-out: CF): 43%
- activation at 1 µM ([5]; read-out: CF): 50%
- EC50 ([5]; read-out: PCS2A CF ED50): 1 µM
- EC50 ([5]; read-out: PCS2A HR ED50): 2 µM
